# From patent publication US9169224B2, “Piperazinyl and piperidinyl ureas as modulators of fatty acid amide hydrolase” (Janssen Pharmaceutica NV, priority 2004, dated 2015)
# pIC50: −log10 of the molar value.
# Experiments:
# FAAH [1] = molecular target: T1, FAAH (Homo sapiens (Human), UniProt O00519); assay: Assay Method 1: FAAH assay, T84 cell homogenate, 3H-anandamide hydrolysis; type: biochemical; conditions: 3H-AEA tracer 200 nM, 1 h at rt
# Outline: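 Homogenate of human T84 cells in pH 9 Tris/EDTA buffer with 0.02% Triton X-100 was incubated with compound and 200 nM final 3H-anandamide for 1 h at rt. Released [3H]ethanolamine was separated from substrate through activated charcoal by centrifugation and quantified by scintillation counting.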
# FAAH [2] = molecular target: T1, FAAH; assay: Assay Method 2: FAAH assay, cells transfected with human FAAH; type: biochemical; conditions: T84 or human FAAH-transfected SK-N-MC cell homogenate, 3H-AEA tracer 80 nM, 1 h at rt
# Method: Assay Method 2 A. Transfection of Cells with Human FAAH
# (§1) A 10-cm tissue culture dish with a confluent monolayer of SK-N-MC cells was split 2 days (d) prior to transfection. Using sterile technique, the media was removed and the cells were detached from the dish by the addition of trypsin. One fifth of the cells were then placed onto a new 10-cm dish. Cells were grown in a 37° C. incubator with 5% CO2 in Minimal Essential Media Eagle with 10% Fetal Bovine Serum. After 2 d, cells were approximately 80% confluent. These cells were removed from the dish with trypsin and pelleted in a clinical centrifuge. The pellet was re-suspended in 400 μL complete media and transferred to an electroporation cuvette with a 0.4 cm gap between the electrodes. Supercoiled human FAAH cDNA (1 pg) was added to the cells and mixed. The voltage for the electroporation was set at 0.25 kV, and the capacitance was set at 960 μF. After electroporation, the cells were diluted into complete media (10 mL) and plated onto four 10-cm dishes. Because of the variability in the efficiency of electroporation, four different concentrations of cells were plated. The ratios used were 1:20, 1:10, and 1:5, with the remainder of the cells being added to the fourth dish. The cells were allowed to recover for 24 h before adding the selection media (complete media with 600 μg/mL G418). After 10 d, dishes were analyzed for surviving colonies of cells. Dishes with well-isolated colonies were used. Cells from individual colonies were isolated and tested.
# (§2) T84 frozen cell pellets or transfected SK-N-MC cells (contents of 1×15 cm culture dishes) were homogenized in 50 mL of FAAH assay buffer (125 mM Tris, 1 mM EDTA, 0.2% Glycerol, 0.02% Triton X-100, 0.4 mM Hepes, pH 9). The assay mixture consisted of 50 μL of the cell homogenate, 10 μL of the test compound, and 40 pt of anandamide [1-^3H-ethanolamine] (^3H-AEA, Perkin-Elmer, 10.3 Ci/mmol), which was added last, for a final tracer concentration of 80 nM. The reaction mixture was incubated at rt for 1 h. During the incubation, 96-well Multiscreen filter plates (catalog number MAFCNOB50; Millipore, Bedford, Mass., USA) were loaded with 25 μL of activated charcoal (Multiscreen column loader, catalog number MACL09625, Millipore) and washed once with 100 μL of MeOH. Also during the incubation, 96-well DYNEX MicroLite plates (catalog number NL510410) were loaded with 100 μL of MicroScint40 (catalog number 6013641, Packard Bioscience, Meriden, Conn., USA). After the 1 h incubation, 60 μL of the reaction mixture were transferred to the charcoal plates, which were then assembled on top of the DYNEX plates using Centrifuge Alignment Frames (catalog number MACF09604, Millipore). The unbound labeled ethanolamine was centrifuged through to the bottom plate (5 min at 2000 rpm), which was preloaded with the scintillant, as described above. The plates were sealed and left at rt for 1 h before counting on a Hewlett Packard TopCount.
# rat FAAH = rat FAAH (Rattus norvegicus (Rat), UniProt P97612); assay: Assay Method 3: FAAH assay, cells transfected with rat FAAH; type: biochemical; conditions: T84 or rat FAAH-transfected SK-N-MC cell homogenate, 3H-AEA tracer 80 nM, 1 h at rt
# Method: Assay Method 3 A. Transfection of Cells with Rat FAAH
# as §1, with “rat” for “human”, “μg)” for “pg)”
# as §2, with “μL” for “pt”
# CREAE mice = conditions: Baker 2001; cited from earlier work
# rats [3] = conditions: rat, Kathuria 2003; cited from earlier work
# rats [4] = conditions: Kathuria 2003; cited from earlier work
# FAAH [5] = molecular target: T1, FAAH; conditions: WO 04/033652; cited from earlier work
# rats [6] = conditions: WO 04/033652; cited from earlier work
# Chain of rat FAAH (P97612 whole entry): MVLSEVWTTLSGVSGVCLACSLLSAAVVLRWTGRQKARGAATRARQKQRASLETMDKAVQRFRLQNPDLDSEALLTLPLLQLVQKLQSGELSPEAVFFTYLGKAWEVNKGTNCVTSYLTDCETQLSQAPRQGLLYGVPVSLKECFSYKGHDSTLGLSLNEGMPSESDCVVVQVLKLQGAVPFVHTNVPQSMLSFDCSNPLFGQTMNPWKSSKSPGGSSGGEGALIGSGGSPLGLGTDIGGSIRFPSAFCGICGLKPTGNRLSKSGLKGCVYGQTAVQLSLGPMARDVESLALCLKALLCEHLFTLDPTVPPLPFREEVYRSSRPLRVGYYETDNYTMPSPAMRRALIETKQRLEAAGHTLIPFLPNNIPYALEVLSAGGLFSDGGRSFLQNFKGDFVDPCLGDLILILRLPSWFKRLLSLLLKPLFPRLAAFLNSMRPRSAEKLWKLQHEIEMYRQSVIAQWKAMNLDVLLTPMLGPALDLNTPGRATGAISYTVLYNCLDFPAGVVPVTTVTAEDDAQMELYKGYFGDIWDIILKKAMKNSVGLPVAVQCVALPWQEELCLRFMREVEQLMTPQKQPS
# T1 sequence (O00519 whole entry): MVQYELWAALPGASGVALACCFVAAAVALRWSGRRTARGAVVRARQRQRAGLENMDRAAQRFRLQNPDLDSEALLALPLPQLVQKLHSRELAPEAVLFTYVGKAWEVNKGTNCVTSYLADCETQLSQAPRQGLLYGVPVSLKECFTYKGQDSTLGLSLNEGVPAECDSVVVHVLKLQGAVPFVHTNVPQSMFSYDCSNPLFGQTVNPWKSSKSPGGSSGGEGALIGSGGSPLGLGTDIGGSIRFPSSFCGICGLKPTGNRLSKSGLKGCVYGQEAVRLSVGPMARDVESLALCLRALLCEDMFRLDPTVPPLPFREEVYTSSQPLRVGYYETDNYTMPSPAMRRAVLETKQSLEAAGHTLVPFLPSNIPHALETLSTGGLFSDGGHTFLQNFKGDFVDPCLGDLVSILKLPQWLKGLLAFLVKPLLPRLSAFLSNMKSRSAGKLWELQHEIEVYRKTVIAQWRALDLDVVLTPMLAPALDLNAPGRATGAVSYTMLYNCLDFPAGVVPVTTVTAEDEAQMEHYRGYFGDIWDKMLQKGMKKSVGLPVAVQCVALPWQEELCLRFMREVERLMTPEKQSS
pIC50 (FAAH [1]),pIC50 (FAAH [2]),pIC50 (rat FAAH),SMILES,further results
7.68,7.80,7.30,"O=C(Nc1ccccc1)N1CCN(Cc2ccc3ccccc3c2O)CC1 [Example 59, 4-(1-Hydroxy-naphthalen-2-ylmethyl)-piperazine-1-carboxylic acid phenylamide]",–
5.89,5.52,5.00,"O=C(Nc1ccccc1)N1CCN(Cc2ccccc2O)CC1 [Example 41, 4-(2-Hydroxy-benzyl)-piperazine-1-carboxylic acid phenylamide]",–
7.77,7.64,6.58,"O=C(Nc1ccccc1)N1CCN(Cc2ccc3ccccc3c2)CC1 [Example 18, 4-Naphthalen-2-ylmethyl-piperazine-1-carboxylic acid phenylamide]",–

# Second part, the compound before the results:
SMILES,pIC50 (FAAH [1]),pIC50 (FAAH [2]),pIC50 (rat FAAH),further results
"O=C(Nc1ccccc1)N1CCN(Cc2ccc(Br)c(Br)c2)CC1 [Example 21, 4-(3,4-Dibromo-benzyl)-piperazine-1-carboxylic acid phenylamide]",7.51,7.72,6.74,–
CCCCCCCCCCCCCCCCS(=O)(=O)F [AM374],–,–,–,spasticity (CREAE mice): significantly reduce spasticity
NC(=O)c1cccc(-c2cccc(OC(=O)NC3CCCCC3)c2)c1 [URB-597],–,–,–,analgesic efficacy (rats [3]): analgesic efficacy; efficacy in anxiety model (rats [4]): efficacy
O=C(CCCCCCc1ccccc1)c1ncc(-c2ccccn2)o1 [OL-135],–,–,–,inhibition of FAAH (FAAH [5]): potent inhibitor of FAAH; analgesic activity (rats [6]): analgesic activity
